Assay results taken from patent US20150094474A1, “AGRICULTURAL CHEMICALS” (Redx Pharma Ltd., priority 2012, published 2015).

How the values were obtained:
barley = assay: Herbicidal bioassay, barley (% necrosis); format: in vivo
How it was run: (§1)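 Lolium perenne, barley, peas and Chinese cabbage at 2-4 true leaf stage sprayed simultaneously with a Potter tower, compounds in DMSO at six concentrations (0.05% to 0.0001%). Phytotoxicity scored as % necrosis per EPPO PP1/135 at set intervals; five replicates per treatment and species; DMSO and water controls.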

peas = assay: Herbicidal bioassay, peas (% necrosis); format: in vivo
How it was run: as §1

CC(=O)OCC(C)Oc1ccc(Oc2ccc(C(F)(F)F)cn2)cc1 (stereo not drawn) [Compound 63, 2-[4-[[5-(Trifluoromethyl)-2-pyridyl]oxy]phenoxy]propyl acetate]
C (less than 50% necrosis): Sum of % necrosis in barley (barley; Dose 0.000001, Day 0) | Sum of % necrosis in barley (barley; Dose 0.000001, Day 1) | Sum of % necrosis in barley (barley; Dose 0.000001, Day 3) | Sum of % necrosis in barley (barley; Dose 0.000001, Day 7) | Sum of % necrosis in barley (barley; Dose 0.000001, Day 10) | Sum of % necrosis in barley (barley; Dose 0.000001, Day 14) | Sum of % necrosis in barley (barley; Dose 0.000001, Day 21) | Sum of % necrosis in barley (barley; Dose 0.000005, Day 0) | Sum of % necrosis in barley (barley; Dose 0.000005, Day 1) | Sum of % necrosis in barley (barley; Dose 0.000005, Day 3) | Sum of % necrosis in barley (barley; Dose 0.000005, Day 7) | Sum of % necrosis in barley (barley; Dose 0.000005, Day 10) | Sum of % necrosis in barley (barley; Dose 0.000005, Day 14) | Sum of % necrosis in barley (barley; Dose 0.000005, Day 21) | Sum of % necrosis in barley (barley; Dose 0.00001, Day 0) | Sum of % necrosis in barley (barley; Dose 0.00001, Day 1) | Sum of % necrosis in barley (barley; Dose 0.00001, Day 3) | Sum of % necrosis in barley (barley; Dose 0.00001, Day 7) | Sum of % necrosis in barley (barley; Dose 0.00001, Day 10) | Sum of % necrosis in barley (barley; Dose 0.00001, Day 14) | Sum of % necrosis in barley (barley; Dose 0.00001, Day 21) | Sum of % necrosis in barley (barley; Dose 0.00005, Day 0) | Sum of % necrosis in barley (barley; Dose 0.00005, Day 1) | Sum of % necrosis in barley (barley; Dose 0.00005, Day 3) | Sum of % necrosis in barley (barley; Dose 0.00005, Day 7) | Sum of % necrosis in barley (barley; Dose 0.00005, Day 10) | Sum of % necrosis in barley (barley; Dose 0.0001, Day 0) | Sum of % necrosis in barley (barley; Dose 0.0001, Day 1) | Sum of % necrosis in barley (barley; Dose 0.0001, Day 3) | Sum of % necrosis in barley (barley; Dose 0.0001, Day 7) | Sum of % necrosis in barley (barley; Dose 0.0001, Day 10) | Sum of % necrosis in barley (barley; Dose 0.0001, Day 14) | Sum of % necrosis in barley (barley; Dose 0.0001, Day 21) | Sum of % necrosis in barley (barley; Dose 0.0005, Day 0) | Sum of % necrosis in barley (barley; Dose 0.0005, Day 1) | Sum of % necrosis in barley (barley; Dose 0.0005, Day 3) | Sum of % necrosis in barley (barley; Dose 0.0005, Day 7) | Sum of % necrosis in barley (barley; Dose 0.0005, Day 10) | Sum of % necrosis in barley (barley; Dose 0.0005, Day 14) | Sum of % necrosis in barley (barley; Dose 0.0005, Day 21) | Sum of % necrosis in Peas (peas; Dose 0.000001, Day 0) | Sum of % necrosis in Peas (peas; Dose 0.000001, Day 1) | Sum of % necrosis in Peas (peas; Dose 0.000001, Day 3) | Sum of % necrosis in Peas (peas; Dose 0.000001, Day 7) | Sum of % necrosis in Peas (peas; Dose 0.000005, Day 0) | Sum of % necrosis in Peas (peas; Dose 0.000005, Day 1) | Sum of % necrosis in Peas (peas; Dose 0.000005, Day 3) | Sum of % necrosis in Peas (peas; Dose 0.000005, Day 7) | Sum of % necrosis in Peas (peas; Dose 0.00001, Day 0) | Sum of % necrosis in Peas (peas; Dose 0.00001, Day 1) | Sum of % necrosis in Peas (peas; Dose 0.00001, Day 3) | Sum of % necrosis in Peas (peas; Dose 0.00001, Day 7) | Sum of % necrosis in Peas (peas; Dose 0.00005, Day 0) | Sum of % necrosis in Peas (peas; Dose 0.00005, Day 1) | Sum of % necrosis in Peas (peas; Dose 0.00005, Day 3) | Sum of % necrosis in Peas (peas; Dose 0.0001, Day 0) | Sum of % necrosis in Peas (peas; Dose 0.0001, Day 1) | Sum of % necrosis in Peas (peas; Dose 0.0001, Day 3) | Sum of % necrosis in Peas (peas; Dose 0.0001, Day 7) | Sum of % necrosis in Peas (peas; Dose 0.0001, Day 10) | Sum of % necrosis in Peas (peas; Dose 0.0005, Day 0) | Sum of % necrosis in Peas (peas; Dose 0.0005, Day 1) | Sum of % necrosis in Peas (peas; Dose 0.0005, Day 3) | Sum of % necrosis in Peas (peas; Dose 0.0005, Day 7)
B (50%-80% necrosis): Sum of % necrosis in barley (barley; Dose 0.00005, Day 14) | Sum of % necrosis in barley (barley; Dose 0.00005, Day 21) | Sum of % necrosis in Peas (peas; Dose 0.000001, Day 10) | Sum of % necrosis in Peas (peas; Dose 0.000001, Day 14) | Sum of % necrosis in Peas (peas; Dose 0.000005, Day 10) | Sum of % necrosis in Peas (peas; Dose 0.000005, Day 14) | Sum of % necrosis in Peas (peas; Dose 0.00001, Day 10) | Sum of % necrosis in Peas (peas; Dose 0.00001, Day 14) | Sum of % necrosis in Peas (peas; Dose 0.00005, Day 7) | Sum of % necrosis in Peas (peas; Dose 0.0001, Day 14) | Sum of % necrosis in Peas (peas; Dose 0.0001, Day 21) | Sum of % necrosis in Peas (peas; Dose 0.0005, Day 10) | Sum of % necrosis in Peas (peas; Dose 0.0005, Day 14) | Sum of % necrosis in Peas (peas; Dose 0.0005, Day 21)
A (over 80% necrosis): Sum of % necrosis in Peas (peas; Dose 0.000001, Day 21) | Sum of % necrosis in Peas (peas; Dose 0.000005, Day 21) | Sum of % necrosis in Peas (peas; Dose 0.00001, Day 21) | Sum of % necrosis in Peas (peas; Dose 0.00005, Day 10) | Sum of % necrosis in Peas (peas; Dose 0.00005, Day 14) | Sum of % necrosis in Peas (peas; Dose 0.00005, Day 21)
